Legend:
[1] = 101 kPa, Liquid; for mass density: Pycnometric method
[2] = refractive index (Na D-line) (dimensionless); settings: 303.15 K; 101.33 kPa; Liquid; Standard Abbe refractometry
[3] = xn = mol fraction of the nth substance listed; settings: 101 kPa, Liquid; for mass density: Pycnometric method
[4] = refractive index (Na D-line) (dimensionless); xn = mol fraction of the nth substance listed; settings: 303.15 K, 101 kPa, Liquid, Standard Abbe refractometry

CCCCOCCO [2-butoxyethan-1-ol]
[1]
Settings | mass density [kg/m3] | speed of sound [m/s] | viscosity [mPa·s]
303.15 K | 892 | 1288.4 | 2.486
313.15 K | 884.2 | – | 1.979
323.15 K | 877.5 | – | 1.653

Settings | refractive index
[2] | 1.415

CCCCOCCO [2-butoxyethan-1-ol] + CC(C)CCO
[3]
Settings | mass density, 303.15 K [kg/m3] | mass density, 313.15 K [kg/m3] | mass density, 323.15 K [kg/m3] | speed of sound, 303.15 K [m/s] | viscosity, 303.15 K [mPa·s] | viscosity, 313.15 K [mPa·s] | viscosity, 323.15 K [mPa·s]
x2 = 0 | 892 | 884.2 | 877.5 | 1288.4 | 2.486 | 1.979 | 1.653
x2 = 0.1297 | 882.2 | 874.5 | 867.7 | 1279.8 | 2.483 | 1.969 | 1.623
x2 = 0.251 | 872.5 | 865.4 | 858.2 | 1270.3 | 2.496 | 1.967 | 1.629
x2 = 0.3649 | 863.1 | 856.1 | 848.8 | 1261.8 | 2.514 | 1.987 | 1.636
x2 = 0.472 | 853.9 | 847.2 | 839.8 | 1251.8 | 2.557 | 1.997 | 1.65
x2 = 0.5728 | 845 | 837.9 | 831 | 1242.3 | 2.594 | 2.028 | 1.673
x2 = 0.6679 | 838.6 | 829.5 | 822.3 | 1233.5 | 2.653 | 2.067 | 1.702
x2 = 0.7578 | 827.7 | 821 | 813.9 | 1224.2 | 2.748 | 2.121 | 1.737
x2 = 0.8428 | 819.3 | 812.5 | 805.7 | 1215.3 | 2.877 | 2.2 | 1.798
x2 = 0.9235 | 811.1 | 804.6 | 797.6 | 1206.4 | 3.058 | 2.303 | 1.851

[4]
Settings | refractive index
x2 = 0 | 1.415
x2 = 0.1297 | 1.4138
x2 = 0.251 | 1.4127
x2 = 0.3649 | 1.4115
x2 = 0.472 | 1.4104
x2 = 0.5728 | 1.4093
x2 = 0.6679 | 1.408
x2 = 0.7578 | 1.4069
x2 = 0.8428 | 1.4058
x2 = 0.9235 | 1.4047

CCOCCO [2-ethoxyethan-1-ol]
[1]
Settings | mass density [kg/m3] | speed of sound [m/s] | viscosity [mPa·s]
303.15 K | 919.5 | 1301.5 | 1.623
313.15 K | 912 | – | 1.355
323.15 K | 903.8 | – | 1.143

Settings | refractive index
[2] | 1.4065

CCOCCO [2-ethoxyethan-1-ol] + CC(C)CCO
[3]
Settings | mass density, 303.15 K [kg/m3] | mass density, 313.15 K [kg/m3] | mass density, 323.15 K [kg/m3] | speed of sound, 303.15 K [m/s] | viscosity, 303.15 K [mPa·s] | viscosity, 313.15 K [mPa·s] | viscosity, 323.15 K [mPa·s]
x2 = 0 | 919.5 | 912 | 903.8 | 1301.5 | 1.623 | 1.355 | 1.143
x2 = 0.102 | 906.1 | 898.6 | 890.5 | 1292.4 | 1.688 | 1.385 | 1.169
x2 = 0.2036 | 892.9 | 885.6 | 877.7 | 1282.4 | 1.761 | 1.424 | 1.196
x2 = 0.3047 | 880.1 | 872.9 | 865.1 | 1272.7 | 1.812 | 1.469 | 1.222
x2 = 0.4053 | 867.7 | 860.5 | 853 | 1262.9 | 1.892 | 1.53 | 1.263
x2 = 0.5055 | 855.8 | 848.7 | 841.3 | 1251.2 | 1.994 | 1.604 | 1.31
x2 = 0.6053 | 844.3 | 837.3 | 830 | 1240.6 | 2.124 | 1.68 | 1.377
x2 = 0.7046 | 833.3 | 826.4 | 819.2 | 1229.3 | 2.301 | 1.812 | 1.46
x2 = 0.8035 | 822.8 | 815.9 | 808.8 | 1219.2 | 2.496 | 1.945 | 1.566
x2 = 0.902 | 812.6 | 805.8 | 799 | 1208.7 | 2.807 | 2.143 | 1.728

[4]
Settings | refractive index
x2 = 0 | 1.4065
x2 = 0.102 | 1.4062
x2 = 0.2036 | 1.4059
x2 = 0.3047 | 1.4055
x2 = 0.4053 | 1.4052
x2 = 0.5055 | 1.4049
x2 = 0.6053 | 1.4046
x2 = 0.7046 | 1.4043
x2 = 0.8035 | 1.404
x2 = 0.902 | 1.4037

COCCO [2-methoxyethan-1-ol]
[1]
Settings | mass density [kg/m3] | speed of sound [m/s] | viscosity [mPa·s]
303.15 K | 956.8 | 1324.3 | 1.55
313.15 K | 946.3 | – | 1.288
323.15 K | 937.8 | – | 1.082

Settings | refractive index
[2] | 1.3983

COCCO [2-methoxyethan-1-ol] + CC(C)CCO
[3], x2 = 0
Settings | mass density [kg/m3] | speed of sound [m/s] | viscosity [mPa·s]
303.15 K | 956.8 | 1324.3 | 1.55
313.15 K | 946.3 | – | 1.288
323.15 K | 937.8 | – | 1.082

Settings | refractive index
[4], x2 = 0 | 1.3983

CC(C)CCO [3-methylbutan-1-ol]
[1]
Settings | mass density [kg/m3] | speed of sound [m/s] | viscosity [mPa·s]
303.15 K | 803.1 | 1197.4 | 3.262
313.15 K | 796.4 | – | 2.441
323.15 K | 789.8 | – | 1.94

Settings | refractive index
[2] | 1.4035

CC(C)CCO [3-methylbutan-1-ol] + CCCCOCCO
[3], x1 = 1
Settings | mass density [kg/m3] | speed of sound [m/s] | viscosity [mPa·s]
303.15 K | 803.1 | 1197.4 | 3.262
313.15 K | 796.4 | – | 2.441
323.15 K | 789.8 | – | 1.94

Settings | refractive index
[4], x1 = 1 | 1.4035

CC(C)CCO [3-methylbutan-1-ol] + CCOCCO
[3], x1 = 1
Settings | mass density [kg/m3] | speed of sound [m/s] | viscosity [mPa·s]
303.15 K | 803.1 | 1197.4 | 3.262
313.15 K | 796.4 | – | 2.441
323.15 K | 789.8 | – | 1.94

Settings | refractive index
[4], x1 = 1 | 1.4035

CC(C)CCO [3-methylbutan-1-ol] + COCCO
[3]
Settings | mass density, 303.15 K [kg/m3] | mass density, 313.15 K [kg/m3] | mass density, 323.15 K [kg/m3] | speed of sound, 303.15 K [m/s] | viscosity, 303.15 K [mPa·s] | viscosity, 313.15 K [mPa·s] | viscosity, 323.15 K [mPa·s]
x1 = 0.0875 | 938.3 | 928.2 | 919.8 | 1312.1 | 1.578 | 1.312 | 1.111
x1 = 0.1775 | 920.5 | 910.8 | 902.8 | 1299.2 | 1.611 | 1.341 | 1.153
x1 = 0.2701 | 903.2 | 893.9 | 885.9 | 1287.4 | 1.652 | 1.376 | 1.169
x1 = 0.3653 | 886.7 | 877.6 | 870 | 1274.8 | 1.749 | 1.432 | 1.192
x1 = 0.4633 | 870.8 | 862.2 | 854.7 | 1261.2 | 1.82 | 1.482 | 1.224
x1 = 0.5643 | 855.8 | 847.6 | 840.1 | 1248.8 | 1.934 | 1.554 | 1.28
x1 = 0.6683 | 841.5 | 833.6 | 826.3 | 1235.7 | 2.119 | 1.667 | 1.355
x1 = 0.7754 | 827.8 | 820.5 | 813.2 | 1223.3 | 2.354 | 1.834 | 1.481
x1 = 0.886 | 815.1 | 808.1 | 801.1 | 1210.5 | 2.715 | 2.06 | 1.671
x1 = 1 | 803.1 | 796.4 | 789.8 | 1197.4 | 3.262 | 2.441 | 1.94

[4]
Settings | refractive index
x1 = 0.0875 | 1.3988
x1 = 0.1775 | 1.3993
x1 = 0.2701 | 1.3999
x1 = 0.3653 | 1.4004
x1 = 0.4633 | 1.4009
x1 = 0.5643 | 1.4014
x1 = 0.6683 | 1.402
x1 = 0.7754 | 1.4025
x1 = 0.886 | 1.403
x1 = 1 | 1.4035

Reference: the NIST ThermoML archive (doi:10.1007/s10765-010-0719-7)
